Assay results published in ChEMBL document CHEMBL1821631, “A novel binding assay identifies high affinity ligands to the rosiglitazone binding site of mitoNEET” (Bioorg Med Chem Lett, 2011).
The source made the active and inactive calls. The rule behind the calls is not given here.

biological target: T1, CDGSH iron-sulfur domain-containing protein 1 (Homo sapiens, UniProt Q9NZ45); assay: Displacement of [3H]-rosiglitazone from human recombinant C-terminal His-tagged cytosolic domain of mitoNEET (32-108) by scintillation proximity assay
T1 sequence (Q9NZ45 whole entry): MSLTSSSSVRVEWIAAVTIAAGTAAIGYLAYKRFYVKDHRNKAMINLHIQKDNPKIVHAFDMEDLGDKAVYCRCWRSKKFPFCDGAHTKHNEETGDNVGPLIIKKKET

Compared with COc1cc(/C=C2/SC(=S)NC2=O)c(OC)cc1O, COc1cc(/C=C2\SC(=S)NC2=O)ccc1O is 2.6-fold lower in IC50: 4.47 µM for the first, 1.73 µM for the second. The second is the more potent here.

CC(C)(C)c1cc(CC2SC(=O)N=C2O)cc(C(C)(C)C)c1O (stereo unspecified) and Cc1cc(CC2SC(=O)NC2=O)cc(C)c1O (stereo unspecified) are within 1.5-fold of each other in IC50: 7.36 µM for the first, 9.56 µM for the second.

Compared with O=C1NC(=S)S/C1=C/c1ccncc1, O=C1NC(=O)/C(=C/c2ccc3nccnc3c2)S1 is 1.8-fold lower in IC50: 5.97 µM for the first, 3.26 µM for the second.

O=C(/C=C1/SC(=O)NC1=O)Nc1ccccc1 and O=C(/C=C1/SC(=O)NC1=O)Nc1cccc(O)c1 are within 1.5-fold of each other in IC50: 11.1 µM for the first, 13.7 µM for the second.

Cc1cc(C)cc(CC2SC(=O)NC2=O)c1 (stereo unspecified) and O=C1NC(=O)C(Cc2ccc(O)cc2)S1 (stereo unspecified) [GLITAZONE] are within 1.5-fold of each other in IC50: 13.3 µM for the first, 14 µM for the second.

Going from O=C1NC(=O)/C(=C\c2cc(Br)c(O)cc2Br)S1 to COc1ccccc1/C=C1\SC(=O)N(CCN)C1=O, the IC50 rises from 2.93 µM to 82.3 µM (28-fold).

Compared with O=C1NC(=O)C(Cc2ccc3c(c2)OC(F)(F)O3)S1 (stereo unspecified), O=S(=O)(O)Oc1cc(O)cc(/C=C/c2ccc(O)cc2)c1 is 1.6-fold lower in IC50: 5.23 µM for the first, 3.36 µM for the second.

biological target: T2, CDGSH iron-sulfur domain-containing protein 1 (Homo sapiens) (UniProt Q9NZ45); assay: Displacement of [3H]-rosiglitazone from human recombinant C-terminal His-tagged cytosolic domain of mitoNEET (32-108) at 80 uM by scintillation proximity assay
T2 sequence (whole entry): T1 sequence (Q9NZ45 whole entry)

Oc1ccc(/C=C/c2cc(O)cc(O)c2)cc1 was tested, and the inhibition was “inactive”.
For N#CCCN1C(=O)S/C(=C\c2ccccc2)C1=O, the inhibition was “inactive”.
